This is an account of results in patent US12091426B2, “Bifunctional degraders of hematopoietic progenitor kinase and therapeutic uses thereof” (Nurix Therapeutics, Inc., priority 2021, dated 2024).

What is called DC50 is the concentration giving 50% degradation. What is called Dmax is the greatest extent of degradation seen.

This test addresses T1, HPK1 (Homo sapiens, UniProt Q92918).
T1 construct: A HiBiT tag was introduced by CRISPR on the N terminus of HPK1 in Jurkat cells; host or cells: Jurkat cells (ATCC TIB-152), monoclonal line with CRISPR knock-in of HiBiT at the endogenous HPK1 locus
The test can be described thus: HPK1 Cellular HiBit Degradation Assay. The format is cell-based. Conditions: HiBiT HPK1 Jurkat cells, 24 hrs; for DC50: concentration at which 50% of HPK1 was remaining, read-out: DC50 Category; for Dmax: Jurkat, read-out: Dmax Category. The method, boiled down: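 HPK1 levels are read by HiBiT luminescence after 24 h exposure of HiBiT-knock-in Jurkat cells to compound at 10 uM–0.1 nM final (11 points). Relative to DMSO (100%), DC50 is the concentration leaving 50% HPK1 from a variable-slope fit, and Dmax is 100 minus minimum remaining. Viability checked in-plate.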
On the technique in general: HiBiT is a short tag that completes a luciferase, so light tracks the accessible tagged protein.

Setting [1] is: maximum degradation vs DMSO vehicle control.

T1 sequence (Q92918 whole entry): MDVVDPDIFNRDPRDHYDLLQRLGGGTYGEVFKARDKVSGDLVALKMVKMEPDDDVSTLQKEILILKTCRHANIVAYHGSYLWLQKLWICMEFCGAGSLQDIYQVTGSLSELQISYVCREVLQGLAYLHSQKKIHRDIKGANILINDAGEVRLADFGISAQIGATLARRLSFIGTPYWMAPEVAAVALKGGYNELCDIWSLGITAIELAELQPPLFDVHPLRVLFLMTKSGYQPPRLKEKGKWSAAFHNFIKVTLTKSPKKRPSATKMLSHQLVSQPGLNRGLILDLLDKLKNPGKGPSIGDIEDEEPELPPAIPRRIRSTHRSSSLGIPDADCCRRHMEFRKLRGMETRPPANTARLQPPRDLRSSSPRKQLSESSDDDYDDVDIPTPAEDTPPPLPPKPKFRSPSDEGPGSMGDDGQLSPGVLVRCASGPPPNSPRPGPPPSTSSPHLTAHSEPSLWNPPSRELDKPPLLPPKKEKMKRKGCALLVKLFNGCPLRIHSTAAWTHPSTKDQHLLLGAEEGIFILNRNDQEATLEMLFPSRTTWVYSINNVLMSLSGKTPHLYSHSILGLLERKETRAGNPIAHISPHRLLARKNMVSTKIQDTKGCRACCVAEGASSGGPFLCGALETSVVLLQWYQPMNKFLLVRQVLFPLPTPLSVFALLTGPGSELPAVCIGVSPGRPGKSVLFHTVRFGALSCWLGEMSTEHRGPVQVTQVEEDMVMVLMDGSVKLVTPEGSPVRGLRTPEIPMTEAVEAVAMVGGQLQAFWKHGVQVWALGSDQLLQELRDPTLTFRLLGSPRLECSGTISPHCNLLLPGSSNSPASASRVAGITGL

For the compound `CC(C)n1cnc2cc(-c3ccc4c(c3)N([C@H]3C[C@@H](N5CCCCC5)C3)C(=O)C43CCN(C(=O)C4CCN(C(=O)C5CCN(c6ccc7c(c6)C(=O)N(C6CCC(=O)NC6=O)C7=O)CC5)CC4)CC3)nc(NC3CC3)c21` (mixture of isomers) [Example 86, 5-{4-[4-({6-[4-(cyclopropylamino)-3-(propan-2-yl)-3H-imidazo[4,5-c]pyridin-6-yl]-2-oxo-1-[(1S,3S)-3-(piperidin-1-yl)cyclobutyl]-1,2-dihydrospiro[indole-3,4′-piperidin]-1′-yl}carbonyl)piperidine-1-carbonyl]piperidin-1-yl}-2-[(3RS)-2,6-dioxopiperidin-3-yl]-2,3-dihydro-1H-isoindole-1,3-dione], the half-maximal degradation concentration (DC50) lay in the range of 0.1 to 0.5 µM. The maximal degradation (Dmax) under setting [1] lay within 70 to 85%.
In the same order, the values of `CC(C)n1cnc2cc(-c3ccc4c(c3)N([C@H]3C[C@@H](N5CCCCC5)C3)C(=O)C43CCN(C(=O)C4CCN(C(=O)C5CCN(c6ccc7c(c6)C(=O)N(C6CCC(=O)NC6=O)C7=O)CC5)CC4)CC3)nc(Nc3ccccc3F)c21` (mixture of isomers) [Example 87, 2-[(3RS)-2,6-dioxopiperidin-3-yl]-5-(4-{4-[(6-{4-[(2-fluorophenyl)amino]-3-(propan-2-yl)-3H-imidazo[4,5-c]pyridin-6-yl}-2-oxo-1-[(1S,3S)-3-(piperidin-1-yl)cyclobutyl]-1,2-dihydrospiro[indole-3,4′-piperidin]-1′-yl)carbonyl]piperidine-1-carbonyl}piperidin-1-yl)-2,3-dihydro-1H-isoindole-1,3-dione] are < 0.1 µM and 70 to 85%.
On to `CC(C)n1cnc2cc(-c3ccc4c(c3)N(C3CC(N5CCCCC5)C3)C(=O)C43CCN(C(=O)C4CCN(C(=O)C5CCN(c6ccc7c(c6)C(=O)N(C6CCC(=O)NC6=O)C7=O)CC5)CC4)CC3)nc(Nc3ccncc3F)c21` (racemic) [Example 88, 2-[(3RS)-2,6-dioxopiperidin-3-yl]-5-(4-{4-[(6-{4-[(3-Fluoropyridin-4-yl)amino]-3-(propan-2-yl)-3H-imidazo[4,5-c]pyridin-6-yl}-2-oxo-1-[(1S,3S)-3-(piperidin-1-yl)cyclobutyl]-1,2-dihydrospiro[indole-3,4′-piperidin]-1′-yl)carbonyl]piperidine-1-carbonyl}piperidin-1-yl)-2,3-dihydro-1H-isoindole-1,3-dione], for which the DC50 is < 0.1 µM. Besides, under setting [1], the “Dmax Category” value is “C (C: >50%-<70%)”.
In the case of `CC(C)n1cnc2cc(-c3ccc4c(c3)N([C@H]3C[C@@H](N5CCCCC5)C3)C(=O)C43CCN(C(=O)C4CCN(C(=O)C5CCN(c6ncc(C7CCC(=O)NC7=O)cn6)CC5)CC4)CC3)nc(NC3CC3)c21` (mixture of isomers) [Example 89, (3RS)-3-(2-{4-[4-({6-[4-(cyclopropylamino)-3-(propan-2-yl)-3H-imidazo[4,5-c]pyridin-6-yl]-2-oxo-1-[(1S,3S)-3-(piperidin-1-yl)cyclobutyl]-1,2-dihydrospiro[indole-3,4′-piperidin]-1′-yl}carbonyl)piperidine-1-carbonyl]piperidin-1-yl}pyrimidin-5-yl)piperidine-2,6-dione], the half-maximal degradation concentration (DC50) was in the range of 0.1 to 0.5 µM. In addition, under setting [1], the Dmax lay within 50 to 70%.
For `CC(C)n1cnc2cc(-c3ccc4c(c3)N([C@H]3C[C@@H](N5CCCCC5)C3)C(=O)C43CCN(C(=O)C4CCN(C(=O)C5CCN(c6ncc(C7CCC(=O)NC7=O)cn6)CC5)CC4)CC3)nc(Nc3ccncc3F)c21` (mixture of isomers) [Example 91, (3RS)-3-[2-(4-{4-[(6-{4-[(3-Fluoropyridin-4-yl)amino]-3-(propan-2-yl)-3H-imidazo[4,5-c]pyridin-6-yl}-2-oxo-1-[(1S,3S)-3-(piperidin-1-yl)cyclobutyl]-1,2-dihydrospiro[indole-3,4′-piperidin]-1′-yl)carbonyl]piperidine-1-carbonyl}piperidin-1-yl)pyrimidin-5-yl]piperidine-2,6-dione], in that order: 0.1 to 0.5 µM and 50 to 70%.
For `CC(C)n1cnc2cc(-c3ccc4c(c3)N([C@H]3C[C@@H](N5CCCCC5)C3)C(=O)C43CCN(C(=O)C4CCN(C(=O)CC5CCN(c6ccc(C7CCC(=O)NC7=O)cn6)CC5)CC4)CC3)nc(NC3CC3)c21` (mixture of isomers) [Example 93, (3RS)-3-[6-(4-{2-[4-({6-[4-(cyclopropylamino)-3-(propan-2-yl)-3H-imidazo[4,5-c]pyridin-6-yl]-2-oxo-1-[(1S,3S)-3-(piperidin-1-yl)cyclobutyl]-1,2-dihydrospiro[indole-3,4′-piperidin]-1′-yl}carbonyl)piperidin-1-yl]-2-oxoethyl}piperidin-1-yl)pyridin-3-yl]piperidine-2,6-dione], in that order: < 0.1 µM and 50 to 70%.
As to `CC(C)n1cnc2cc(-c3ccc4c(c3)N([C@H]3C[C@@H](N5CCCCC5)C3)C(=O)C43CCN(C(=O)C4CCN(C(=O)CN5CCN(c6ccc(C7CCC(=O)NC7=O)cn6)CC5)CC4)CC3)nc(NC3CC3)c21` (mixture of isomers) [Example 94, (3RS)-3-[6-(4-{2-[4-({6-[4-(cyclopropylamino)-3-(propan-2-yl)-3H-imidazo[4,5-c]pyridin-6-yl]-2-oxo-1-[(1S,3S)-3-(piperidin-1-yl)cyclobutyl]-1,2-dihydrospiro[indole-3,4′-piperidin]-1′-yl}carbonyl)piperidin-1-yl]-2-oxoethyl}piperazin-1-yl)pyridin-3-yl]piperidine-2,6-dione], the 50% degradation concentration (DC50) was < 0.1 µM. For the same compound, the greatest degradation seen (Dmax) under setting [1] fell in the range of 50 to 70%.
For `CC(C)n1cnc2cc(-c3ccc4c(c3)N([C@H]3C[C@@H](N5CCCCC5)C3)C(=O)C43CCN(C(=O)C4CCN(C(=O)CN5CCN(c6ccc(C7CCC(=O)NC7=O)cn6)CC5)CC4)CC3)nc(Nc3ccccc3F)c21` (mixture of isomers) [Example 95, (3RS)-3-{6-[4-(2-{4-[(6-{4-[(2-fluorophenyl)amino]-3-(propan-2-yl)-3H-imidazo[4,5-c]pyridin-6-yl}-2-oxo-1-[(1S,3S)-3-(piperidin-1-yl)cyclobutyl]-1,2-dihydrospiro[indole-3,4′-piperidin]-1′-yl)carbonyl]piperidin-1-yl}-2-oxoethyl)piperazin-1-yl]pyridin-3-yl}piperidine-2,6-dione], in that order: < 0.1 µM and 70 to 85%.
For `CC(C)n1cnc2cc(-c3ccc4c(c3)N([C@H]3C[C@@H](N5CCCCC5)C3)C(=O)C43CCN(C(=O)C4CCN(C(=O)CN5CCN(c6ccc(C7CCC(=O)NC7=O)cn6)CC5)CC4)CC3)nc(Nc3ccncc3F)c21` (mixture of isomers) [Example 96, (3RS)-3-{6-[4-(2-{4-[(6-{4-[(3-fluoropyridin-4-yl)amino]-3-(propan-2-yl)-3H-imidazo[4,5-c]pyridin-6-yl}-2-oxo-1-[(1S,3S)-3-(piperidin-1-yl)cyclobutyl]-1,2-dihydrospiro[indole-3,4′-piperidin]-1′-yl)carbonyl]piperidin-1-yl}-2-oxoethyl)piperazin-1-yl]pyridin-3-yl}piperidine-2,6-dione], in that order: 0.1 to 0.5 µM and 70 to 85%.
